# Measured values published in patent US6737383B1, “Herbicidal oxadiazolidines” (priority 1999, dated 2004).
# Assays:
# giant foxtail = experiment: Test B pre/postemergence giant foxtail; assay type: in vivo, Setaria faberii
# In short: (§1)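 Test chemicals in a non-phytotoxic solvent mixture with surfactant were sprayed preemergence onto planted seeds and postemergence onto plants 2 to 18 cm tall (1- to 4-leaf stage). After twelve to sixteen days in a greenhouse, injury was visually rated against untreated controls from 0 (no effect) to 10 (complete control).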
# duck salad = experiment: Test B flood test duck salad; assay type: in vivo, Heteranthera limosa
# In short: (§2)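 Read-out is a visual response score from 0 (no effect) to 10 (complete control), assigned by comparison with untreated controls. Treatment was applied at the 2-leaf stage, and plants stayed in the greenhouse for twelve to sixteen days before scoring.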
# cocklebur = experiment: Test B pre/postemergence cocklebur; assay type: in vivo, Xanthium strumarium
# In short: as §1
# bamyardgrass = experiment: Test B flood test barnyardgrass; assay type: in vivo, Echinochloa crus-galli
# In short: as §2
# wild oat = experiment: Test B pre/postemergence wild oat; assay type: in vivo, Avena fatua
# In short: as §1
# morningglory = experiment: Test B pre/postemergence morningglory; assay type: in vivo, Ipomoea hederacea
# In short: as §1
# rape = experiment: Test B pre/postemergence rape; assay type: in vivo, Brassica napus
# In short: as §1
# pigweed = experiment: Test B pre/postemergence pigweed; assay type: in vivo, Amaranthus retroflexus
# In short: as §1
# surinam grass = experiment: Test B pre/postemergence surinam grass; assay type: in vivo, Brachiaria decumbens
# In short: as §1
# crabgrass = experiment: Test B pre/postemergence crabgrass; assay type: in vivo, Digitaria sanguinalis
# In short: as §1
# smallflower flatsedge = experiment: Test B flood test smallflower flatsedge; assay type: in vivo, Cyperus difformis
# In short: as §2
# sugar beet = experiment: Test B pre/postemergence sugar beet; assay type: in vivo, Beta vulgaris
# In short: as §1
# purple nutsedge = experiment: Test B pre/postemergence purple nutsedge; assay type: in vivo, Cyperus rotundus
# In short: as §1
# rice = experiment: Test B flood test rice; assay type: in vivo, Oryza sativa
# In short: as §2
# corn = experiment: Test B pre/postemergence corn; assay type: in vivo, Zea mays
# In short: as §1
# soybean = experiment: Test B pre/postemergence soybean; assay type: in vivo, Glycine max
# In short: as §1
# [1] = Preemergence, Rate 62 g/ha, scale of 0 to 10 where 0 is no effect and 10 is complete control
# [2] = Preemergence, Rate 250 g/ha, scale of 0 to 10 where 0 is no effect and 10 is complete control
# [3] = Preemergence, Rate 500 g/ha, scale of 0 to 10 where 0 is no effect and 10 is complete control
# [4] = Rate 62 g/ha, Postemergence, scale 0 to 10 (0 no effect, 10 complete control)
# [5] = Rate 125 g/ha, Postemergence, scale of 0 to 10 where 0 is no effect and 10 is complete control
# [6] = Rate 250 g/ha, Postemergence, scale of 0 to 10 where 0 is no effect and 10 is complete control
# [7] = Rate 62 g/ha, headed Pre-emergence (flood test species), scale 0 to 10 (0 no effect, 10 complete control)
# [8] = Rate 125 g/ha, Pre-emergence, flood test species, scale 0 to 10 where 0 is no effect and 10 is complete control
# [9] = Rate 250 g/ha, Pre-emergence, flood-test species, scale 0 to 10, 0 is no effect, 10 is complete control
# [10] = Rate 500 g/ha, Pre-emergence, flood test species, scale 0 to 10 (0 no effect, 10 complete control)
# [11] = Rate 500 g/ha, Postemergence, scale 0 to 10, 0 no effect, 10 complete control
smiles,measurement,setting,value
CC(C)N(C(=O)n1oc(=O)n(Cc2ccccc2-c2ccccc2)c1=O)c1ccc(F)cc1 [Compound 313],Giant foxtail plant response rating,giant foxtail; [1],0
same,Giant foxtail plant response rating (0 to 10 scale),"giant foxtail; Preemergence, Rate 125 g/ha",0
same,Giant foxtail plant response rating,giant foxtail; [2],0
same,Giant foxtail plant response rating,giant foxtail; [3],0
same,Giant foxtail plant response rating,giant foxtail; [4],0
same,Giant foxtail plant response rating,giant foxtail; [5],0
same,"Plant response rating, Giant foxtail",giant foxtail; [6],0
same,Ducksalad plant response rating,duck salad; [7],0
same,Ducksalad plant response rating,duck salad; [8],0
same,Ducksalad plant response rating,duck salad; [9],0
same,Ducksalad plant response rating,duck salad; [10],0
same,Cocklebur plant response rating,cocklebur; [1],0
same,Cocklebur plant response rating (0 to 10 scale),"cocklebur; Preemergence, Rate 125 g/ha",0
same,Cocklebur plant response rating,cocklebur; [2],0
same,Cocklebur plant response rating,cocklebur; [3],0
same,Cocklebur plant response rating,cocklebur; [4],0
same,Cocklebur plant response rating,cocklebur; [5],0
same,"Plant response rating, Cocklebur",cocklebur; [6],0
same,Cocklebur plant response rating,cocklebur; [11],0
same,Barnyardgrass plant response rating,bamyardgrass; [7],0
same,Barnyardgrass plant response rating,bamyardgrass; [8],0
same,Barnyardgrass plant response rating,bamyardgrass; [9],0
same,Barnyardgrass plant response rating,bamyardgrass; [10],0
same,Wild oats plant response rating,wild oat; [1],0
same,Wild oats plant response rating (0 to 10 scale),"wild oat; Preemergence, Rate 125 g/ha",0
same,Wild oats plant response rating,wild oat; [2],0
same,Wild oats plant response rating,wild oat; [3],0
same,Wild oats plant response rating,wild oat; [4],0
same,Wild oats plant response rating,wild oat; [5],0
same,"Plant response rating, Wild oats",wild oat; [6],0
same,Morningglory plant response rating,morningglory; [1],0
same,Morningglory plant response rating (0 to 10 scale),"morningglory; Preemergence, Rate 125 g/ha",0
same,Morningglory plant response rating,morningglory; [2],0
same,Morningglory plant response rating,morningglory; [3],0
same,Morningglory plant response rating,morningglory; [4],2
same,Morningglory plant response rating,morningglory; [5],3
same,"Plant response rating, Morningglory",morningglory; [6],3
same,Rape plant response rating,rape; [1],0
same,Rape plant response rating (0 to 10 scale),"rape; Preemergence, Rate 125 g/ha",0
same,Rape plant response rating,rape; [2],0
same,Rape plant response rating,rape; [3],0
same,Rape plant response rating,rape; [4],0
same,Rape plant response rating,rape; [5],0
same,"Plant response rating, Rape",rape; [6],0
same,Redroot pigweed plant response rating,pigweed; [1],0
same,Redroot pigweed plant response rating (0 to 10 scale),"pigweed; Preemergence, Rate 125 g/ha",0
same,Redroot pigweed plant response rating,pigweed; [2],0
same,Redroot pigweed plant response rating,pigweed; [3],0
same,Redroot pigweed plant response rating,pigweed; [4],0
same,Redroot pigweed plant response rating,pigweed; [5],0
same,"Plant response rating, Redroot pigweed",pigweed; [6],2
same,B. signalgrass plant response rating,surinam grass; [1],0
same,"B. signalgrass plant response rating (0 to 10 scale, 0 is no effect, 10 is complete control)","surinam grass; Preemergence, Rate 125 g/ha",0
same,B. signalgrass plant response rating,surinam grass; [2],0
same,B. signalgrass plant response rating,surinam grass; [3],0
same,B. signalgrass plant response rating,surinam grass; [4],0
same,B. signalgrass plant response rating,surinam grass; [5],0
same,"Plant response rating, B. signalgrass",surinam grass; [6],0
same,B. signalgrass plant response rating,surinam grass; [11],0
same,Crabgrass plant response rating,crabgrass; [1],0
same,Crabgrass plant response rating (0 to 10 scale),"crabgrass; Preemergence, Rate 125 g/ha",0
same,Crabgrass plant response rating,crabgrass; [2],0
same,Crabgrass plant response rating,crabgrass; [3],0
same,Crabgrass plant response rating,crabgrass; [4],0
same,Crabgrass plant response rating,crabgrass; [5],0
same,"Plant response rating, Crabgrass",crabgrass; [6],0
same,S. Flatsedge plant response rating,smallflower flatsedge; [7],0
same,S. Flatsedge plant response rating,smallflower flatsedge; [8],0
same,S. Flatsedge plant response rating,smallflower flatsedge; [9],0
same,S. Flatsedge plant response rating,smallflower flatsedge; [10],0
same,Sugarbeets plant response rating,sugar beet; [1],0
same,Sugarbeets plant response rating (0 to 10 scale),"sugar beet; Preemergence, Rate 125 g/ha",0
same,Sugarbeets plant response rating,sugar beet; [2],0
same,Sugarbeets plant response rating,sugar beet; [3],0
same,Sugarbeets plant response rating,sugar beet; [4],0
same,Sugarbeets plant response rating,sugar beet; [5],0
same,"Plant response rating, Sugarbeets",sugar beet; [6],0
same,Nutsedge plant response rating,purple nutsedge; [1],0
same,Nutsedge plant response rating (0 to 10 scale),"purple nutsedge; Preemergence, Rate 125 g/ha",0
same,Nutsedge plant response rating,purple nutsedge; [2],0
same,Nutsedge plant response rating,purple nutsedge; [3],0
same,Nutsedge plant response rating,purple nutsedge; [4],0
same,Nutsedge plant response rating,purple nutsedge; [5],0
same,"Plant response rating, Nutsedge",purple nutsedge; [6],0
same,Rice plant response rating,rice; [7],0
same,Rice plant response rating,rice; [8],0
same,Rice plant response rating,rice; [9],0
same,Rice plant response rating,rice; [10],0
same,Corn plant response rating,corn; [1],0
same,Corn plant response rating (0 to 10 scale),"corn; Preemergence, Rate 125 g/ha",0
same,Corn plant response rating,corn; [2],0
same,Corn plant response rating,corn; [3],0
same,Corn plant response rating,corn; [4],0
same,Corn plant response rating,corn; [5],0
same,"Plant response rating, Corn",corn; [6],0
same,Corn plant response rating,corn; [11],0
same,Soybean plant response rating,soybean; [1],0
same,Soybean plant response rating (0 to 10 scale),"soybean; Preemergence, Rate 125 g/ha",0
same,Soybean plant response rating,soybean; [2],0
same,Soybean plant response rating,soybean; [3],0
same,Soybean plant response rating,soybean; [4],1
same,Soybean plant response rating,soybean; [5],2
same,"Plant response rating, Soybean",soybean; [6],3
